According to ChEMBL document CHEMBL1201862, “PubChem BioAssay data set” (2004):
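Values below derive from 48-hour exposures of cells grown in 96-well plates, with endpoints linearly interpolated between the two concentrations bracketing the appropriate inhibition level. Abbreviation: GI50, concentration required for 50% inhibition of growth.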 Active and inactive are the calls of the source. No stated cut-off is given here; in the data, active = GI50 up to about 1.1 µM and inactive = higher.

Tests used:
Test in all cases: NCI-60 cell line screen, 48 h
XF498 = test system: XF498
NCI-H522 = test system: NCI-H522
UACC-257 = test system: UACC-257
SW-620 = test system: SW-620
UACC-62 = test system: UACC-62
LXFL 529 = test system: LXFL 529
RPMI-8226 = test system: RPMI-8226
HL-60 = test system: HL-60
SR = test system: SR
IGROV-1 = test system: IGROV-1
CAKI-1 = test system: CAKI-1
SNB-78 = test system: SNB-78
HOP-92 = test system: HOP-92
HOP-62 = test system: HOP-62
Malme-3M = test system: Malme-3M
HCC 2998 = test system: HCC 2998
ACHN = test system: ACHN
OVCAR-4 = test system: OVCAR-4

Measured: GI50

Cc1nc2c(s/c(=N\N)n2-c2ccccc2)c(=O)[nH]1
inactive: XF498 > 100 µM | NCI-H522 > 100 µM | UACC-257 > 100 µM | SW-620 > 100 µM | UACC-62 > 100 µM | LXFL 529 > 100 µM | RPMI-8226 > 100 µM | HL-60 > 100 µM | SR > 100 µM | IGROV-1 > 100 µM | CAKI-1 > 100 µM | SNB-78 > 100 µM | HOP-92 > 100 µM | HOP-62 > 100 µM | Malme-3M > 100 µM | HCC 2998 > 100 µM | ACHN > 100 µM | OVCAR-4 > 100 µM

O=C(O)COc1ccc(C(=O)/C(SS/C(C(=O)c2ccc(OCC(=O)O)c(Cl)c2Cl)=C2\C=C(c3ccccc3Cl)SS2)=C2/C=C(c3ccccc3Cl)SS2)c(Cl)c1Cl
inactive: XF498 13.6 µM | NCI-H522 3.27 µM | UACC-257 48.8 µM | SW-620 25.5 µM | UACC-62 23.1 µM | LXFL 529 5.5 µM | RPMI-8226 18.3 µM | HL-60 2.59 µM | SR 2.23 µM | IGROV-1 21.3 µM | CAKI-1 39.4 µM | SNB-78 16.9 µM | HOP-92 7.89 µM | HOP-62 72.1 µM | Malme-3M 53.8 µM | HCC 2998 57.1 µM | ACHN 23.5 µM | OVCAR-4 19.8 µM

CCc1cccc(C)c1NC(=O)CC1C(=O)Nc2ccccc2S1(=O)=O (stereo not drawn)
inactive: XF498 12.5 µM | NCI-H522 15.8 µM | UACC-257 18.9 µM | SW-620 15.2 µM | UACC-62 15.8 µM | LXFL 529 16.7 µM | RPMI-8226 13.9 µM | HL-60 12.1 µM | SR 5.65 µM | IGROV-1 13.4 µM | CAKI-1 14.2 µM | SNB-78 21.1 µM | HOP-92 12 µM | Malme-3M 14.4 µM | HCC 2998 16.8 µM | ACHN 18.6 µM | OVCAR-4 14.9 µM

CC(C)(C)Sc1nnc(SC(C)(C)C)c2c(SC(C)(C)C)nnc(O)c12
inactive: XF498 15.3 µM | NCI-H522 3.61 µM | UACC-257 13.6 µM | SW-620 6.87 µM | UACC-62 9.91 µM | LXFL 529 10.6 µM | RPMI-8226 2.8 µM | HL-60 2.14 µM | SR 4.14 µM | IGROV-1 8.51 µM | CAKI-1 3.58 µM | SNB-78 12.2 µM | HOP-92 2.49 µM | HOP-62 13.9 µM | Malme-3M 13.1 µM | HCC 2998 11.5 µM | OVCAR-4 2.16 µM

CCOc1ccc(NC(=O)C(=O)CC(=O)c2c[n+]([O-])c3cc(C)c(C)cc3[n+]2[O-])cc1
inactive: XF498 > 100 µM | NCI-H522 > 100 µM | UACC-257 > 100 µM | SW-620 > 100 µM | UACC-62 > 100 µM | LXFL 529 > 100 µM | RPMI-8226 > 100 µM | HL-60 > 100 µM | SR > 100 µM | IGROV-1 > 100 µM | CAKI-1 > 100 µM | SNB-78 > 100 µM | HOP-92 > 100 µM | HOP-62 > 100 µM | Malme-3M > 100 µM | HCC 2998 > 100 µM | ACHN > 100 µM | OVCAR-4 > 100 µM

OC1CCC[C@@H]1Sc1ccccc1 (stereo partly drawn)
inactive: XF498 > 100 µM | UACC-257 > 100 µM | SW-620 > 100 µM | UACC-62 57.8 µM | LXFL 529 > 100 µM | RPMI-8226 > 100 µM | HL-60 > 100 µM | SR > 100 µM | CAKI-1 > 100 µM | SNB-78 > 100 µM | HOP-92 > 100 µM | HOP-62 > 100 µM | HCC 2998 > 100 µM | ACHN > 100 µM | OVCAR-4 > 100 µM
